Results reported in patent US8101389B2, “Bacterial glutamine synthetases and methods of use” (Athenix Corp, priority 2006, dated 2012).

System: E. coli DH5α cells with TKH2
Experiment: growth of DH5α with TKH2 on M63 minimal plates with glufosinate
Type: cell-based
Conditions: 20 mM glufosinate
Protocol: To obtain the gene(s) responsible for the strain's resistance to glufosinate, a small insert plasmid genomic library was prepared from strain ATX 20345. Genomic DNA was extracted from a fresh, overnight LB culture using SDS, proteinase K cell lysis followed by CTAB/NaCl, phenol-chloroform extractions. Partial digests were performed on the genomic DNA using 0.1 units Sau3A I at 37° C. for 30 minutes followed by the addition of EDTA and incubation at 65° C. for 20 minutes to halt the reaction. Resultant DNA was approximately 4-12 kb in size. The DNA was gel purified, treated with T4 polynucletide kinase, then ligated into BamH I digested pUC18 vector. Ligations were transformed into DH5a and plated directly on M63 minimal media plates containing 20 mM glufosinate, 100 μg/ml carbenicillin, and 0.1 mM IPTG. After several days, 4 colonies had appeared, tentatively named TKH1-4. They were grown up and plasmid DNA was isolated and analyzed by digestion with EcoR I+ Hind III, and Pst I/Sac Ito compare inserts. Though all four clones contained inserts, TKH2 and TKH3 were identical by restriction digest analysis, and both contained inserts of approximately 4.9 kb.
To reconfirm that TKH2 and TKH3 confer resistance to 20 mM glufosinate, the purified plasmids were retransformed into DH5α cells. pUC18 was retransformed as a negative control. […]

## CP(=O)(O)CCC(N)C(=O)O (stereo not shown) [glufosinate]
  growth in the presence of glufosinate: grew in the presence of glufosinate
